The source made the active and inactive calls.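 How the source made its calls: active means AC50, the dose giving half-maximal effect, exceeds a fixed cutoff for a compound that rescues yeast growth under heat; inactive means the rest, inconclusive results apart.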
What follows are compounds tested on S. cerevisiae Burl-1 ts mutant growth, BacTiter-Glo, 38.5C 24 h (assay: restored growth of temperature-sensitive Burl-1 yeast – whole organism, S. cerevisiae, Burl-1 ts mutant, luminescence, counter-screen for SUMOylation pathway inhibitor project, dose response (AID 463199)).

Row | Compound | AC50
1 | CCCC(=O)Nc1ccc(Sc2ccc([N+](=O)[O-])cc2)cc1 | > 42 µM (inactive)
2 | CCOC(=O)N1CCN(C(=O)c2ccc3ccccc3c2)CC1 | > 42 µM (inactive)
3 | Cc1cccc(NS(=O)(=O)c2ccc3[nH]c(=O)cc(C(=O)O)c3c2)c1 | > 21 µM (inactive)
4 | Cc1n[nH]c(=O)c2c(NC(=O)COC(=O)Cc3ccc(Cl)cc3Cl)oc(C)c12 | > 21 µM (inactive)
5 | C=CCOC(=O)C(C#N)c1nc2ccccc2nc1N1CCN(Cc2ccccc2)CC1 (stereo not given) | > 42 µM (inactive)
6 | N/C(=N\NC(=O)c1sccc1OCc1ccc(Cl)cc1Cl)c1ccccn1 | > 42 µM (inactive)
7 | COCc1nnc(NC(=O)CC(C)C)s1 | > 42 µM (inactive)
8 | COc1ccc(NC(=O)C2CCCN(C(=O)Nc3cccc(OC)c3)C2)cc1 (stereo not given) | > 42 µM (inactive)
9 | O=C(NNC(=O)c1ccccc1O)c1ccco1 | > 42 µM (inactive)
10 | CCOC(=O)N1CCN(C(=O)CNC(=O)c2nn(-c3ccc(OC)c(OC)c3)c(=O)c3ccccc23)CC1 | > 42 µM (inactive)
11 | O=C(CCC(F)(F)F)N1CCCC(CO)(CCc2ccccc2)C1 (stereo not given) | > 42 µM (inactive)
12 | CCc1ccccc1NC(=O)N[C@@H](C)C(=O)OC | > 42 µM (inactive)
13 | c1ccc(CNc2ccc3ccccc3n2)nc1 | > 42 µM (inactive)
14 | NC(=O)c1cc(S(=O)(=O)N2CCCC2)ccc1OCc1ccc(F)cc1 | > 42 µM (inactive)
15 | CC1CCCC(N2C(=O)NC(NC(=O)c3ccco3)(C(F)(F)F)C2=O)C1C (stereo not given) | > 42 µM (inactive)
16 | CC(=O)Nc1ccc(S(=O)(=O)Nc2cccc(-c3ccc4nncn4n3)c2)cc1 | > 42 µM (inactive)
17 | COc1ccccc1C(=O)OCC(=O)NC(=O)NCc1ccccc1 | > 42 µM (inactive)
18 | Cc1ccc(C(=O)NC(Cc2c[nH]c3ccccc23)C(=O)O)o1 (stereo not given) | > 42 µM (inactive)
19 | CC(C)n1c(O)c(N=Nc2ccccn2)c2ccccc21 | > 42 µM (inactive)
20 | COc1ccccc1NC(=O)Nc1ccc(Cl)c(S(=O)(=O)Nc2ccccc2OC)c1 | > 42 µM (inactive)
21 | CC(C)CCCN1CCN=C1Nc1ccccc1 | > 42 µM (inactive)
22 | CCOC(=O)N1CCC(NS(=O)(=O)c2ccc(C)c(Cl)c2)CC1 | > 42 µM (inactive)
23 | Cc1cc2c3c(c1)C1(SCC(=O)N1c1ccc(F)cc1)C(=O)N3C(C)(C)CC2C (stereo not given) | > 42 µM (inactive)
24 | CCN1C(=O)N(c2ccc(Cl)cc2)C(C)=CC1(C)C | > 42 µM (inactive)
25 | CCOC(=O)c1cc2sc(C)cc2n1CC(=O)Nc1ccc2c(c1)OCCO2 | > 42 µM (inactive)

Row | Compound | AC50
26 | Cc1cc(C(F)(F)F)nc(SCC(=O)Nc2cc(C)on2)n1 | > 42 µM (inactive)
27 | COc1ccc(/C=N\NC(=O)c2cc(OCC(F)(F)F)ccc2OCC(F)(F)F)cc1 | > 42 µM (inactive)
28 | C=CCN1C(=O)/C(=C2/Sc3ccc(OC)cc3N2C)SC1=Nc1ccccc1 | > 42 µM (inactive)
29 | Cc1cc(C)n(C(=O)c2ccccc2[N+](=O)[O-])n1 | > 42 µM (inactive)
30 | CC12CCC(=O)N1C(C(=O)Nc1ccccc1F)CS2 (stereo not given) | > 42 µM (inactive)
31 | NNC(=O)c1[nH]c2ccccc2c1-c1ccccc1 | > 42 µM (inactive)
32 | Nc1ccc(NC(=O)c2ccco2)c(Cl)c1 | > 42 µM (inactive)
33 | CC(=O)NCc1c(Cl)cccc1-n1cccc1 | > 42 µM (inactive)
34 | O=C(CSc1ccc(Br)cc1)Nc1ccccc1N1CCOCC1 | > 42 µM (inactive)
35 | O=C(/C(=N\Nc1ccc(Br)cc1)Sc1nnnn1-c1ccccc1)c1ccccc1 | > 42 µM (inactive)
36 | CC(NC(=O)c1cccs1)c1ccc(Br)cc1 (stereo not given) | > 42 µM (inactive)
37 | Cc1ccc(C)n1-c1ccc(N(C)C)cc1 | > 42 µM (inactive)
38 | COc1cccc(C2/C(=C(/O)c3ccccc3)C(=O)C(=O)N2Cc2ccco2)c1 (stereo not given) | > 42 µM (inactive)
39 | CCn1cc(C(=O)N2CCN(c3ccc(OC)cc3)CC2)c(=O)c2cc(S(=O)(=O)N3CCOCC3)ccc21 | > 42 µM (inactive)
40 | CN1CCN(CC(=O)N2c3ccccc3C(=O)Nc3cccnc32)CC1 | > 42 µM (inactive)
41 | CCn1c(SCC(=O)NC2CCCCC2)nnc1C(C)NC(=O)c1ccccc1F (stereo not given) | > 42 µM (inactive)
42 | CS(=O)(=O)Nc1ccccc1C(=O)NCCSCc1ccccc1 | > 42 µM (inactive)
43 | CCN(C(=S)NCCOC)c1cccc2ccccc12 | > 42 µM (inactive)
44 | Cc1cc(C)n(-c2nc(-c3cccc(Cl)c3)cs2)n1 | > 42 µM (inactive)
45 | Cc1ccc(S(=O)(=O)N2CCN(C(=O)CSc3nc(N)cc(=O)[nH]3)CC2)c(C)c1 | > 42 µM (inactive)
46 | COc1ccc(NC(=O)c2cc(S(=O)(=O)Nc3ccc(OC)cc3)cs2)cc1 | > 42 µM (inactive)
47 | CS(=O)(=O)N(CC(=O)N1CCCCCC1)Cc1ccc(Cl)cc1 | > 42 µM (inactive)
48 | CC1=NC2(CCCc3c2no[n+]3[O-])N(O)C1(C)C (stereo not given) | > 42 µM (inactive)
49 | O=C(CCC(=O)OC(C(=O)c1ccccc1)c1ccccc1)Nc1ccccc1 (stereo not given) | > 21 µM (inactive)
50 | CN(c1ccccc1C(=O)N1CCN(Cc2ccc3c(c2)OCO3)CC1)S(C)(=O)=O | > 42 µM (inactive)

Row | Compound | AC50
51 | CCC1(CC)NC(=O)N(CC(=O)OCC(=O)NC(=O)c2ccccc2)C1=O | > 42 µM (inactive)
52 | NS(=O)(=O)c1ccc(CCNC(=O)CN2CCN(c3ccc(F)cc3)CC2)cc1 | > 42 µM (inactive)
53 | CCCCn1c(N)c(N(CCOC)C(=O)c2cnccn2)c(=O)[nH]c1=O | > 42 µM (inactive)
54 | O=C(Nc1ccc2c(c1)oc1ccccc12)C1CC1 | > 42 µM (inactive)
55 | COC(=O)c1cc(N=Nc2c(C)[nH]c3ccccc23)cc(C(=O)OC)c1 | > 42 µM (inactive)
56 | O=C(NNC(=O)c1csc(N2CCOCC2)n1)c1ccc(Cl)nc1 | > 42 µM (inactive)
57 | CC(C)(c1ccccc1)c1ccc(OCCN2CCOCC2)cc1 | > 42 µM (inactive)
58 | COc1cccc(Cn2cnc3c(NS(=O)(=O)c4cccc(Cl)c4Cl)c(C)c(C)cc32)c1 | > 42 µM (inactive)
59 | C(=N\N1CCN(C2c3ccccc3-c3ccccc32)CC1)/c1ccncc1 | > 42 µM (inactive)
60 | COc1ccccc1CCNC(=O)/C(=C/c1cccnc1)NC(=O)c1ccccc1 | > 42 µM (inactive)
61 | CC(Oc1ccc([N+](=O)[O-])cc1)C(=O)NCCCN1CCOCC1 (stereo not given) | > 42 µM (inactive)
62 | CCCNC(=O)c1cc2c(C(F)(F)F)nn(C)c2s1 | > 42 µM (inactive)
63 | O=C(Nc1ccc(F)cc1)c1cccnn1 | > 42 µM (inactive)
64 | COCCNC(=O)C(=O)N/N=C(\C)CC(=O)Nc1cccc(C(F)(F)F)c1 | > 42 µM (inactive)
65 | COc1cc(/C=N/NC(=O)c2cccc([N+](=O)[O-])c2)ccc1O | > 42 µM (inactive)
66 | COc1ccc(Nc2oc(-c3cccs3)nc2C#N)cc1 | > 42 µM (inactive)
67 | O=C(c1ccc(OC2CCN(CCc3ccccc3)CC2)cc1)N1CCCC1 | > 42 µM (inactive)
68 | CCOc1ccc(NC(=O)CC2C(=O)N(c3ccccc3)C(=S)N2Cc2ccccn2)cc1 (stereo not given) | > 42 µM (inactive)
69 | C[C@@]12C(=O)Nc3ccc(Br)cc3C(=O)N1[C@H]1c3ccccc3OC[C@@H]1[C@@H]2c1ccccc1 | > 42 µM (inactive)
70 | CCCCCC(=O)NNC1=NCC(Cc2cccc(Cl)c2)S1 (stereo not given) | > 42 µM (inactive)
71 | Cc1ccc(C)c(-n2nnnc2SCC(=O)Nc2c(C)n(C)n(-c3ccccc3)c2=O)c1 | > 42 µM (inactive)
72 | O=C(Nc1ccc(S(=O)(=O)NC2=NCCCCC2)cc1)c1ccc(C(F)(F)F)cc1 | > 42 µM (inactive)
73 | CCn1c(SCc2nc3ccccc3s2)nnc1-c1ccccc1 | > 42 µM (inactive)
74 | CC(=O)N1CCCc2cc(S(=O)(=O)Nc3ccc(C)cc3C)ccc21 | > 42 µM (inactive)
75 | Cc1ccnc(NC(c2cccnc2)c2ccc3cccnc3c2O)c1 (stereo not given) | > 42 µM (inactive)

Row | Compound | AC50
76 | N#Cc1c(-c2ccco2)cc(-c2cccnc2)nc1N | > 42 µM (inactive)
77 | COc1ccccc1OCCSc1nc2ccccc2n1CCC(=O)O | > 42 µM (inactive)
78 | CCOC(=O)C1C(c2ccc(C)o2)NC(=O)NC1(O)C(F)(F)F (stereo not given) | > 42 µM (inactive)
79 | CN(c1ccccc1)c1ccc(/C=C/[N+](=O)[O-])cc1 | > 42 µM (inactive)
80 | CCCCN(C/C=C/c1ccccc1OC)Cc1ccccc1 | > 42 µM (inactive)
81 | COC(=O)c1cccc(NC(=O)c2cccnc2)c1 | > 42 µM (inactive)
82 | O=C(O)CCC(=O)Nc1cccc(C(=O)Nc2ccc(Br)cc2)c1 | > 42 µM (inactive)
83 | c1ccc(CCCc2nc(-c3cccnc3)no2)cc1 | > 42 µM (inactive)
84 | CCC1(CC)NC(=O)N(CC(=O)N2N=C(c3ccc(Cl)cc3)CC2c2ccco2)C1=O (stereo not given) | > 42 µM (inactive)
85 | Cc1ccc2nc(N/N=C/c3ccccc3F)nc(-c3ccccc3)c2c1 | > 42 µM (inactive)
86 | COc1cccc(/C=N/NC(=O)CNC(=O)c2ccco2)c1O | > 42 µM (inactive)
87 | Cc1cc([N+](=O)[O-])ccc1NC(=O)CSc1nccc(=O)[nH]1 | > 42 µM (inactive)
88 | Cc1ccc(-n2nnnc2C(Cl)(Cl)c2nnnn2-c2ccc(C)cc2)cc1 | > 42 µM (inactive)
89 | O=C(O)c1ccc(S(=O)(=O)N2CCN(c3ccccn3)CC2)cc1 | > 42 µM (inactive)
90 | CCN(CC)c1ccc(N=Cc2c(O)n(Cc3ccccc3)c(=O)[nH]c2=O)cc1 | > 42 µM (inactive)
91 | CCn1nccc1C(=O)Nc1ccccc1OC | > 42 µM (inactive)
92 | Cc1nc(-c2cccc(S(=O)(=O)N3CCOCC3)c2)cs1 | > 42 µM (inactive)
93 | Cc1ccc(NC(=O)CN2C(=O)COc3ccc(S(=O)(=O)N4CCOCC4)cc32)cc1F | > 42 µM (inactive)
94 | CC(C)COc1ccc(C(=O)Nc2ccc([N+](=O)[O-])cc2)cc1 | > 42 µM (inactive)
95 | Cc1cc(C)cc(OCC(=O)Nc2ccc(N3CCN(C(=O)c4ccco4)CC3)cc2)c1 | > 42 µM (inactive)
96 | COc1ccccc1N(CC(=O)NCC1CCCO1)C(=O)CCC(=O)Nc1cc(C)on1 (stereo not given) | > 42 µM (inactive)
97 | O=C(OC1CCOC1=O)c1cccc(S(=O)(=O)Nc2ccc(F)cc2)c1 (stereo not given) | > 42 µM (inactive)
98 | Cc1ccc(C)c(NC(NC(=O)c2ccccn2)C(Cl)(Cl)Cl)c1 (stereo not given) | > 42 µM (inactive)
99 | COc1ccccc1CC(=O)N1CCOCC1 | > 42 µM (inactive)
100 | CN(C(=O)c1cncc(Br)c1)C1C2CC3CC(C2)CC1C3 (stereo not given) | 8.94 µM
